Measurements published in patent publication US20230117034A1, “PYRAZOLOTRIAZINES” (Bayer Aktiengesellschaft, priority 2019, published 2023).

Assays:
[1] = test system: CAL-120, human breast adenocarcinoma cells; test: Proliferation assay CAL-120 (crystal violet, 4 days); assay type: cell-based; details: Homo sapiens, CAL-120, 96 h, CAL-120 cells, median, read-out: Prolif-CAL-120, IC50-[mol/l] (median)
Procedure: Human tumour cells were originally obtained from the American Type Culture Collection (ATCC), or from the Deutsche Sammlung von Mikroorganismen und Zellkulturen (DSMZ, German Collection of Microorganisms and Cell Cultures). Cultivated tumour cells (CAL-120, human breast adenocarcinoma cells, DSMZ ACC-459; MDA-MB-231, human breast cancer cells, ATCC HTB-26) were plated at a density of 4,000 cells/well in a 96-well multititer plate in 200 microL of their respective growth medium supplemented 10% fetal calf serum. After 24 hours, the cells of one plate (zero-point plate) were stained with crystal violet (see below), while the medium of the other plates was supplemented with the test substances in various concentrations (0 micromol/L, as well as in the range of 0.01-10 micromol/L; the final concentration of the solvent dimethyl sulfoxide was adjusted to 0.1%) using a Tecan HP D300 Digital Dispenser. The cells were incubated for 4 days in the presence of test substances. Cell proliferation was determined by staining the cells with crystal violet: the cells were fixed by adding 20 microL/measuring point of an 11% glutaric aldehyde solution for 15 minutes at room temperature. After three washing cycles of the fixed cells with water, the plates were dried at room temperature. The cells were stained by adding 100 microL/measuring point of a 0.1% crystal violet solution (pH 3.0). After three washing cycles of the stained cells with water, the plates were dried at room temperature. The dye was dissolved by adding 100 microL/measuring point of a 10% acetic acid solution. The extinction was determined by photometry at a wavelength of 595 nm. The change of cell number, in percent, was calculated by normalization of the measured values to the extinction values of the zero-point plate (=0%) and the extinction of the untreated (0 μM) cells (=100%). The IC50 values (inhibitory concentration at 50% of maximal effect) were determined by means of a 4 parameter fit.

[2] = molecular target: T1, CDK12 (nuclear staining in CAL-120 cells) (Homo sapiens, UniProt Q9NYV4); test: CDK12 nuclear protein level: immunofluorescence/high content analysis (CAL-120); assay type: cell-based; details: for DC50: CAL-120 cells, 24 h, immunofluorescence, 50% reduction of nuclear CDK12 staining intensity, median, read-out: CDK12 degradation IF, DC50- [mol/l] (median); for (IC50 CDK12 high ATP) to (Degradation DC50 CDK12) ratio: ratio of IC50 CDK12 high ATP kinase assay to DC50 CDK12 degradation (IF, CAL-120)
T1 construct: endogenous in cells; host or cells: CAL-120 human breast cancer cells (DSMZ ACC 459)
T1 sequence (Q9NYV4 whole entry): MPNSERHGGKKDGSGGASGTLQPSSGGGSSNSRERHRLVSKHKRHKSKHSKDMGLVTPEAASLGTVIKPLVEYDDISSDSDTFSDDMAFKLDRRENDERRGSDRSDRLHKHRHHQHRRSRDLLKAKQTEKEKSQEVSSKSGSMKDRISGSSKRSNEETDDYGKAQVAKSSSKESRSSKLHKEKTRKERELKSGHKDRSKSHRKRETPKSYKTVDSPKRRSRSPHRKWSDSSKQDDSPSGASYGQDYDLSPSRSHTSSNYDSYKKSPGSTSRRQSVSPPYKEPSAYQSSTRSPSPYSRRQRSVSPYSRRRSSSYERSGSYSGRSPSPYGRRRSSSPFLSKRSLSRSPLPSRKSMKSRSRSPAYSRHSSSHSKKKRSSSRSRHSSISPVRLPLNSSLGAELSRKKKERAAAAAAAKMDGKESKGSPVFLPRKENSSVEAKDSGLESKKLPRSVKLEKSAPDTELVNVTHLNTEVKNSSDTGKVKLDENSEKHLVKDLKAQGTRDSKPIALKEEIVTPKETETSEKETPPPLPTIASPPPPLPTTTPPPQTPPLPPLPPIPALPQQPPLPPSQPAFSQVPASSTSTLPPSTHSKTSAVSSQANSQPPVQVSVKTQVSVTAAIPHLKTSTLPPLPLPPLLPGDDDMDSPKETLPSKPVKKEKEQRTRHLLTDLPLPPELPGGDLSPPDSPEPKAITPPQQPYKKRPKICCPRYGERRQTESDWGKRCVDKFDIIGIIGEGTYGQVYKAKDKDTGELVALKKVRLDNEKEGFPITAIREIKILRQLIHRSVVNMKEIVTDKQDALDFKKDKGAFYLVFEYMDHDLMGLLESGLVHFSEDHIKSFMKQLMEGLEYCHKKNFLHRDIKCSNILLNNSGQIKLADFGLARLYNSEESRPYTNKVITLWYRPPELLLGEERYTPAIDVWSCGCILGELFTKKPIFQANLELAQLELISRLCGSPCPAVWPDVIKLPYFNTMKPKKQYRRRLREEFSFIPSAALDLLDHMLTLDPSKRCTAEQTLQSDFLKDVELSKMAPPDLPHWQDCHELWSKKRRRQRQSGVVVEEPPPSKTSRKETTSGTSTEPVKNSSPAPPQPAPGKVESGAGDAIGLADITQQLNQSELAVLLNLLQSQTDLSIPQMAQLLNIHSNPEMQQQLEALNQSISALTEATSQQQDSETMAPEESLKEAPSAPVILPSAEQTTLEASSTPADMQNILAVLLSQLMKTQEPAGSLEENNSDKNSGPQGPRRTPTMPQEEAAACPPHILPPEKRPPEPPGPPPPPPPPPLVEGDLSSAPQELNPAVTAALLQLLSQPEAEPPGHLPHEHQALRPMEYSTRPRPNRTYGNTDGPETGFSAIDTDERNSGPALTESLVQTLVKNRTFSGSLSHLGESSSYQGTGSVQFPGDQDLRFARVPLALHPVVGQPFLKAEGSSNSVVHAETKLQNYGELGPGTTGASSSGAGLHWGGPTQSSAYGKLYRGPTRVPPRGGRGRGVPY
T1 sequence (O75909 whole entry partner): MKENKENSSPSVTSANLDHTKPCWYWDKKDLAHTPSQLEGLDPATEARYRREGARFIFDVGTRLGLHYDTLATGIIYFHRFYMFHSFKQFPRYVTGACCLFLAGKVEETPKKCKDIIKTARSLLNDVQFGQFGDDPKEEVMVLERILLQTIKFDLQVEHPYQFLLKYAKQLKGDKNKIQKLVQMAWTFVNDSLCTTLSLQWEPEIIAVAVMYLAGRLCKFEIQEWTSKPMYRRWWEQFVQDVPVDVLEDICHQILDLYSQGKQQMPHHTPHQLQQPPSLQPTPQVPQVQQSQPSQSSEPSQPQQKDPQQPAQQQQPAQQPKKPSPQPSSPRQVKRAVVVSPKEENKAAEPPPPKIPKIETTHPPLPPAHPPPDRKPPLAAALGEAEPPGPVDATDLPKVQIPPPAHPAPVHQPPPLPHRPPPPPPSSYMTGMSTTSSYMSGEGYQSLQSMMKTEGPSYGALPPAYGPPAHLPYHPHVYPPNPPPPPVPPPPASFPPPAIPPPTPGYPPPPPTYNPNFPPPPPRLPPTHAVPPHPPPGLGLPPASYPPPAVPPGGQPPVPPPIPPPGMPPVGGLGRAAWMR
Procedure: In the context of the present invention, the term “DC50 CDK12” refers to the DC50 values obtained according to the assay described in this section (7) herein below, i.e. the DC50 values for the degradation of CDK12.
Plates are then incubated for 24 h at 37° C. in an humidified incubator and fixed with 4% PFA for 10 min. […] Nuclear and cytoplasmic intensity as well as the nuclear/cytoplasmic intensity ratio is determined by automated image analysis using custom generated scripts (MetaXpress). Data is then transferred to Genedata Screener software, normalized to DMSO and control and DC50 values (degrading concentration to achieve 50% reduction of nuclear CDK12 staining intensity relative to controls) are reported.

Compound	IC50 [1] [nM]	DC50 [2] [nM]	(IC50 CDK12 high ATP) to (Degradation DC50 CDK12) ratio [2]
Fc1ccc(-c2nnc(CNc3nc(N4CCOCC4)nc4c(Br)cnn34)[nH]2)cc1F [Example 99, 8-bromo-N-{[5-(3,4-difluorophenyl)-4H-1,2,4-triazol-3-yl]methyl}-2-(morpholin-4-yl)pyrazolo[1,5-a][1,3,5]triazin-4-amine]	54.7	6.7	–
CC(C)c1cnn2c(NCc3nc4ccccc4[nH]3)nc(N3CCCOCC3)nc12 [Example 8, N-[(1H-benzimidazol-2-yl)methyl]-2-(1,4-oxazepan-4-yl)-8-(propan-2-yl)pyrazolo[1,5-a][1,3,5]triazin-4-amine]	–	20.7	>956
Cc1ccc(-c2nnc(CNc3nc(N4CCOCC4)nc4c(Br)cnn34)[nH]2)cc1F [Example 98, 8-bromo-N-{[5-(3-fluoro-4-methylphenyl)-4H-1,2,4-triazol-3-yl]methyl}-2-(morpholin-4-yl)pyrazolo[1,5-a][1,3,5]triazin-4-amine]	116	38.5	28
Fc1cc(-c2nnc(CNc3nc(N4CCOCC4)nc4c(Br)cnn34)[nH]2)cc(F)c1F [Example 100, 8-bromo-2-(morpholin-4-yl)-N-{[5-(3,4,5-trifluorophenyl)-4H-1,2,4-triazol-3-yl]methyl}pyrazolo[1,5-a][1,3,5]triazin-4-amine]	60.2	10.2	122
Brc1cnn2c(NCc3nc4ccccc4[nH]3)nc(N3C[C@@H]4C[C@H]3CO4)nc12 [Example 103, N-[(1H-benzimidazol-2-yl)methyl]-8-bromo-2-[(1S,4S)-2-oxa-5-azabicyclo[2.2.1]heptan-5-yl]pyrazolo[1,5-a][1,3,5]triazin-4-amine]	46.5	5.36	1914
CC(C)c1cnn2c(NCc3nc4ccccc4[nH]3)nc(N(C)CC(C)(C)O)nc12 [Example 5, 1-{[4-{[(1H-benzimidazol-2-yl)methyl]amino}-8-(propan-2-yl)pyrazolo[1,5-a][1,3,5]triazin-2-yl](methyl)amino}-2-methylpropan-2-ol]	–	11.4	455
Fc1cccc2[nH]c(CNc3nc(N4CCOCC4)nc4c(Br)cnn34)nc12 [Example 97, 8-bromo-N-[(4-fluoro-1H-benzimidazol-2-yl)methyl]-2-(morpholin-4-yl)pyrazolo[1,5-a][1,3,5]triazin-4-amine]	5.17	0.327	2411
Clc1ccccc1-c1cnc(CNc2nc(N3CCOCC3)nc3c(Br)cnn23)[nH]1 [Example 96, 8-bromo-N-{[5-(2-chlorophenyl)-1H-imidazol-2-yl]methyl}-2-(morpholin-4-yl)pyrazolo[1,5-a][1,3,5]triazin-4-amine]	30.1	5.73	812
C[C@@H]1CN(c2nc(NCc3nc4c(F)cccc4[nH]3)n3ncc(Br)c3n2)C[C@H](C)O1 [Example 109, 8-bromo-2-[(2R,6S)-2,6-dimethylmorpholin-4-yl]-N-[(4-fluoro-1H-benzimidazol-2-yl)methyl]pyrazolo[1,5-a][1,3,5]triazin-4-amine]	4.9	1.09	162
CC(C)c1cnn2c(NCc3nc4ccccc4[nH]3)nc(N3CCOC[C@H]3C)nc12 [Example 7, N-[(1H-benzimidazol-2-yl)methyl]-2-[(3R)-3-methylmorpholin-4-yl]-8-(propan-2-yl)pyrazolo[1,5-a][1,3,5]triazin-4-amine]	–	63.6	161
Fc1cc(F)cc(-c2nnc(CNc3nc(N4CCOCC4)nc4c(Br)cnn34)[nH]2)c1 [Example 105, 8-bromo-N-{[5-(3,5-difluorophenyl)-4H-1,2,4-triazol-3-yl]methyl}-2-(morpholin-4-yl)pyrazolo[1,5-a][1,3,5]triazin-4-amine]	7.36	2.49	429
Fc1ccccc1-c1cnn2c(NCc3nc4ccccc4[nH]3)nc(N3CCOCC3)nc12 [Example 95, N-[(1H-benzimidazol-2-yl)methyl]-8-(2-fluorophenyl)-2-(morpholin-4-yl)pyrazolo[1,5-a][1,3,5]triazin-4-amine]	230	34.3	>584

Results, then the compound that gave them:

IC50 [1] [nM]	DC50 [2] [nM]	(IC50 CDK12 high ATP) to (Degradation DC50 CDK12) ratio [2]	Compound
5.03	1.03	394	C[C@@H]1CN(c2nc(NCc3nc4cc(F)ccc4[nH]3)n3ncc(Br)c3n2)C[C@H](C)O1 [Example 110, 8-bromo-2-[(2R,6S)-2,6-dimethylmorpholin-4-yl]-N-[(5-fluoro-1H-benzimidazol-2-yl)methyl]pyrazolo[1,5-a][1,3,5]triazin-4-amine]
29.7	4.85	1176	Brc1cnn2c(NCc3nnc(-c4ccccc4)[nH]3)nc(N3C[C@H]4C[C@@H]3CO4)nc12 [Example 118, 8-bromo-2-[(1R,4R)-2-oxa-5-azabicyclo[2.2.1]heptan-5-yl]-N-[(5-phenyl-4H-1,2,4-triazol-3-yl)methyl]pyrazolo[1,5-a][1,3,5]triazin-4-amine]
18.5	2.47	>8081	C[C@H]1CN(c2nc(NCc3nnc(-c4ccccc4)[nH]3)n3ncc(Br)c3n2)CCN1C.O=CO [Example 122, 8-bromo-2-[(3S)-3,4-dimethylpiperazin-1-yl]-N-[(5-phenyl-4H-1,2,4-triazol-3-yl)methyl]pyrazolo[1,5-a][1,3,5]triazin-4-amine formate]
25.4	5.08	2588	Brc1cnn2c(NCc3nnc(-c4ccccc4)[nH]3)nc(N3C[C@@H]4C[C@H]3CO4)nc12 [Example 120, 8-bromo-2-[(1S,4S)-2-oxa-5-azabicyclo[2.2.1]heptan-5-yl]-N-[(5-phenyl-4H-1,2,4-triazol-3-yl)methyl]pyrazolo[1,5-a][1,3,5]triazin-4-amine]
6.43	0.768	636	COc1ccc2[nH]c(CNc3nc(N4C[C@@H](C)O[C@@H](C)C4)nc4c(Br)cnn34)nc2c1 [Example 124, 8-bromo-2-[(2R, 6S)-2,6-dimethylmorpholin-4-yl]-N-[(5-methoxy-1H-benzimidazol-2-yl)methyl]pyrazolo[1,5-a][1,3,5]triazin-4-amine]
109	16	677	Brc1cnn2c(NCc3nc4ccccc4[nH]3)nc(N3CCN4CCC[C@H]4C3)nc12 [Example 148, N-[(1H-benzimidazol-2-yl)methyl]-8-bromo-2-[(8aS)-hexahydropyrrolo[1,2-a]pyrazin-2 (1 H)-yl]pyrazolo[1,5-a][1,3,5]triazin-4-amine]
–	45.3	256	CC(=O)NCCCc1cccc2[nH]c(CNc3nc(N4CCOCC4)nc4c(Br)cnn34)nc12.O=CO [Example 115, formic acid-N-{3-[2-({[8-bromo-2-(morpholin-4-yl)pyrazolo[1,5-a][1,3,5]triazin-4-yl]amino}methyl)-1H-benzimidazol-4-yl]propyl}acetamide (1/1)]
–	8.64	197	NCCc1ccc2[nH]c(CNc3nc(N4CCOCC4)nc4c(Br)cnn34)nc2c1.O=CO [Example 113, formic acid-N-{[5-(2-aminoethyl)-1H-benzimidazol-2-yl]methyl}-8-bromo-2-(morpholin-4-yl)pyrazolo[1,5-a][1,3,5]triazin-4-amine (1/1)]
–	38.8	210	NCCCc1cccc2[nH]c(CNc3nc(N4CCOCC4)nc4c(Br)cnn34)nc12.O=CO [Example 114, formic acid-N-{[4-(3-aminopropyl)-1H-benzimidazol-2-yl]methyl}-8-bromo-2-(morpholin-4-yl)pyrazolo[1,5-a][1,3,5]triazin-4-amine (1/1)]
